Structures are written as SMILES. Activity calls are given as the source filed them. The calls are words filed in the database; no cut-off is given here.

A short description of data set [1]: Oral bioavailability in ICR mouse at 30 mg/kg measured upto 24 hrs by LC-MS/MS analysis. The data set is classed as ADME, organism-based. As to conditions: in vivo.
Data set [2] can be described thus: Stability in mouse liver microsomes assessed as half life measure upto 45 mins in presence of NADPH by LC-MS analysis. Type of data set: ADME, Microsome. In general terms: Liver microsomes are vesicles of endoplasmic reticulum, rich in cytochrome P450 enzymes.
The target in data set [3] is Voltage-gated inwardly rectifying potassium channel KCNH2 (Homo sapiens, UniProt Q12809). Nature of the data set: Inhibition of hERG by Q patch automated patch-clamp method. Type of data set: toxicity.
Sequence of Voltage-gated inwardly rectifying potassium channel KCNH2 (Q12809 whole entry): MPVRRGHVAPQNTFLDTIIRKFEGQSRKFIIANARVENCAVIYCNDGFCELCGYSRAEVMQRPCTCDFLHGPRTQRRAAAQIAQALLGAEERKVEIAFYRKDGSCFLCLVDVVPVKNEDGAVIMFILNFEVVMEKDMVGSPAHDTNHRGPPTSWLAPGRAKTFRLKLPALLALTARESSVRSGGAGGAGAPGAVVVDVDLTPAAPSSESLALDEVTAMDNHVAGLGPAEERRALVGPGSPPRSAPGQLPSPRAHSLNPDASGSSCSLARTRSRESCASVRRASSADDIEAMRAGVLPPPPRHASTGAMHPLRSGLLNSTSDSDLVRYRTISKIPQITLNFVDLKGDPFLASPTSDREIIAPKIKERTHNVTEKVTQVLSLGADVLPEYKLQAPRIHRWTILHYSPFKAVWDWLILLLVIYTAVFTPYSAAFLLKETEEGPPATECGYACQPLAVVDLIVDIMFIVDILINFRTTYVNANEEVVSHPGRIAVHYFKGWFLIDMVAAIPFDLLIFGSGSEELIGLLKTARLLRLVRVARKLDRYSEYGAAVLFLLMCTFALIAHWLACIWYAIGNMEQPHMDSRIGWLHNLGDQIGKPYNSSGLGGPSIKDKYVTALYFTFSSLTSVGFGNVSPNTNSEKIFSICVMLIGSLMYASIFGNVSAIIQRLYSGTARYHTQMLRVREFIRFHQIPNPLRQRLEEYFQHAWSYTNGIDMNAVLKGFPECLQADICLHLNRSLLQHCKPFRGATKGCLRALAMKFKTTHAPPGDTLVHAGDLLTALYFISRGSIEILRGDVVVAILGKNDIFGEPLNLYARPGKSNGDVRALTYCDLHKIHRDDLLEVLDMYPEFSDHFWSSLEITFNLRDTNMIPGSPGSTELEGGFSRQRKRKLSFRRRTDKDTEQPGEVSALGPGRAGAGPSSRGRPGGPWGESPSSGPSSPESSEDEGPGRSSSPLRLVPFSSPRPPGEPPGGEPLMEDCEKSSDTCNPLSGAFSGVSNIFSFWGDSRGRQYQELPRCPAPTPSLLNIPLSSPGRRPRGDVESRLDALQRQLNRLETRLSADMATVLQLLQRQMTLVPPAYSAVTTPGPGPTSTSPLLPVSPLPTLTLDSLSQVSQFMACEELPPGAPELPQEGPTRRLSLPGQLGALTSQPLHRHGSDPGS
Another data set concerns RAW264.7. Briefly: Cytotoxicity against mouse RAW264.7 cells assessed as cell viability incubated for 48 hrs. Type of data set: toxicity, cell-based. Conditions: raw264.7, 48 h.
Data set [4] deals with cGMP-inhibited 3',5'-cyclic phosphodiesterase 3A (Homo sapiens, UniProt Q14432). Nature of the data set: Inhibition of PDE3A (679 to 1087 residues) (unknown origin) expressed in Escherichia coli BL21 using [3H-GMP] or [3H-AMP] as substrate incubated for 15 mins by liquid scintillation counting method.
Sequence of cGMP-inhibited 3',5'-cyclic phosphodiesterase 3A (Q14432 whole entry, the tested form may be a part): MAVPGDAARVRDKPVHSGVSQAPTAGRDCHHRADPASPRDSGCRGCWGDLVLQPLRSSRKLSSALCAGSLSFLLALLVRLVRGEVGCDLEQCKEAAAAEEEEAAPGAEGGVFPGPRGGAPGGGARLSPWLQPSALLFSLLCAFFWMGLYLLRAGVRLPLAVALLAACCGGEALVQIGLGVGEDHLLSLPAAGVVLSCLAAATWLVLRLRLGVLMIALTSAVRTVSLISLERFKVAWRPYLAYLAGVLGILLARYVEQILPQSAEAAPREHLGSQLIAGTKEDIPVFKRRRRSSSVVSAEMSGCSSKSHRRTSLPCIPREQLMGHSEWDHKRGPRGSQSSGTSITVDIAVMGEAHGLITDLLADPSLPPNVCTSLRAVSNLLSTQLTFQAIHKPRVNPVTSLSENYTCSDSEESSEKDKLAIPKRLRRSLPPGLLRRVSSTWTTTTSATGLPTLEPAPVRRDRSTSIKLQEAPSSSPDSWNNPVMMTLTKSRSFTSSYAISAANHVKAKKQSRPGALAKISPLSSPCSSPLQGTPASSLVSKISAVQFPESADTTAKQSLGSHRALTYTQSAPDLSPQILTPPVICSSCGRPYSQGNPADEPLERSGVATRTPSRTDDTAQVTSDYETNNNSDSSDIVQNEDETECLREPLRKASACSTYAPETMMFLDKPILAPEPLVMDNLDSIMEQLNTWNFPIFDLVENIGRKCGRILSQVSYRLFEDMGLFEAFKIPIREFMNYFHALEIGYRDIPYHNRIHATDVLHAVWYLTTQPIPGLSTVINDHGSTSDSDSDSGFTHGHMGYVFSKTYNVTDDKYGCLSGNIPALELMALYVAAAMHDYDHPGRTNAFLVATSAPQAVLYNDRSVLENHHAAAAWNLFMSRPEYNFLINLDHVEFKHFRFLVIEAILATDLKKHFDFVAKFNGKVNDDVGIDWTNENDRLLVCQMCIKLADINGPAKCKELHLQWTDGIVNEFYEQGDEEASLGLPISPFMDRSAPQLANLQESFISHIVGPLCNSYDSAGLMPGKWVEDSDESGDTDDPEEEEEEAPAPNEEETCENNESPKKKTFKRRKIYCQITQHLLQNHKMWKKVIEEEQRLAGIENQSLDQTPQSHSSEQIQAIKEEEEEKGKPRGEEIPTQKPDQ
For data set [5], the species on record is Mus musculus. Nature of the data set: Anti-psoriatic activity in IMQ-induced BALB/c psoriasis mouse model assessed as reduction IMQ- induced immune response by measuring spleen weight loss at 62.5 mg as 2% ointment, TOP daily and measured upto 7 days. The data set is classed as functional, organism-based. As to conditions: time <= 7.0 day.
Data set [6] deals with Dual specificity calcium/calmodulin-dependent 3',5'-cyclic nucleotide phosphodiesterase 1B (Homo sapiens, UniProt Q01064). Nature of the data set: Inhibition of PDE1B (10 to 487 residues) (unknown origin) expressed in Escherichia coli BL21 using [3H-GMP] or [3H-AMP] as substrate incubated for 15 mins by liquid scintillation counting method.
Sequence of Dual specificity calcium/calmodulin-dependent 3',5'-cyclic nucleotide phosphodiesterase 1B (Q01064 whole entry, the tested form may be a part): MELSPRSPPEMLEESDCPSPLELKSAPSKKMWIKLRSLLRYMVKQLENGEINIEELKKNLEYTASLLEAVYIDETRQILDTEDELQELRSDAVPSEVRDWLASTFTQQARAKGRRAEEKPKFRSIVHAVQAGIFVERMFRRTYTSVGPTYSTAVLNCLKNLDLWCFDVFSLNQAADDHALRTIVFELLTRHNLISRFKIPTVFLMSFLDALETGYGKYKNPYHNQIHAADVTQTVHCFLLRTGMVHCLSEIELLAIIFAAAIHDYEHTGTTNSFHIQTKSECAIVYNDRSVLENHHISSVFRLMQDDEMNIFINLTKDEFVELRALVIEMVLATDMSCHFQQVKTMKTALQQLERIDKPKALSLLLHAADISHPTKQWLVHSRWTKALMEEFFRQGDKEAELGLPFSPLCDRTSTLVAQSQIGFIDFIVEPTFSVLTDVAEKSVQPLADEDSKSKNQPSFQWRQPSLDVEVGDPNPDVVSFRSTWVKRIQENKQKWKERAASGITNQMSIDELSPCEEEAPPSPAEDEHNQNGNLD
For data set [7], the species on record is Mus musculus. Nature of the data set: Anti-psoriatic activity in IMQ-induced BALB/c psoriasis mouse model assessed as reduction in thickness score at 62.5 mg as 2% ointment, TOP daily and measured upto 7 days. Conditions: time <= 7.0 day, DDE = dose-dependent effect. Type of data set: functional, organism-based.
Data set [8] has as its target 3',5'-cyclic-AMP phosphodiesterase 4D (Homo sapiens, UniProt Q08499). Briefly: Inhibition of PDE4D2 (86 to 413 residues) (unknown origin) expressed in Escherichia coli BL21 using [3H-GMP] or [3H-AMP] as substrate incubated for 15 mins by liquid scintillation counting method.
The target of data set [9] is High affinity 3',5'-cyclic-AMP phosphodiesterase 7A (Homo sapiens, UniProt Q13946). Briefly: Inhibition of PDE7A1 (130 to 482 residues) (unknown origin) expressed in Escherichia coli BL21 using [3H-GMP] or [3H-AMP] as substrate incubated for 15 mins by liquid scintillation counting method.
Sequence of High affinity 3',5'-cyclic-AMP phosphodiesterase 7A (Q13946 whole entry, the tested form may be a part): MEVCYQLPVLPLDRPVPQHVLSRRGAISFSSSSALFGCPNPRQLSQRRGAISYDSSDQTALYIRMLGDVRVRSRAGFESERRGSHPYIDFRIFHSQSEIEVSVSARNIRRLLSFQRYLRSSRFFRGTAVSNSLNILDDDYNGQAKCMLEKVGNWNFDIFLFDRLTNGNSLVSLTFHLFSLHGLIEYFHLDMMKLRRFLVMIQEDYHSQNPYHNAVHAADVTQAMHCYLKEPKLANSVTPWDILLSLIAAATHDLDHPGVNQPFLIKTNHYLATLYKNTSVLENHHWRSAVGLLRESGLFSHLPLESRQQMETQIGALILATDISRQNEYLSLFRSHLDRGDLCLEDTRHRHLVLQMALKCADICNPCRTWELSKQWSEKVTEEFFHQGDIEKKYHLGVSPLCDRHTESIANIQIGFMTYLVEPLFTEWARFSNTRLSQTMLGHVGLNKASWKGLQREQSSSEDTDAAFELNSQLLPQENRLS
Data set [10] is described as follows: Toxicity in IMQ-induced BALB/c psoriasis mouse model assessed as body weight loss at 62.5 mg as 2% ointment, TOP daily and measured upto 7 days. Conditions: in vivo, topical_or_ocular, 168 h, time < 7 day.
Data set [11] in a line: Toxicity in BALB/c mouse assessed as body weight loss at 62.5 mg as 2% ointment, TOP daily and measured upto 7 days. As to conditions: in vivo, topical_or_ocular, 168 h, time < 7 day.
Data set [12] in a line: AUC (0 to t) in ICR mouse at 30 mg/kg, po measured upto 24 hrs by LC-MS/MS analysis. Also on record: time < 24 hrs, dose 30 mg/kg, route po. As to conditions: in vivo. The data set is classed as ADME, organism-based.
The species named for data set [13] is Mus musculus. Nature of the data set: Anti-psoriatic activity in IMQ-induced BALB/c psoriasis mouse model assessed as reduction in scales score at 62.5 mg as 4% ointment, TOP daily and measured upto 7 days. The data set is classed as functional, organism-based. Conditions: time <= 7.0 day, DDE = dose-dependent effect.
Data set [14] in a line: Toxicity in IMQ-induced BALB/c psoriasis mouse model assessed as body weight loss at 10 mg/kg, po for 7 days. The data set is classed as organism-based. As to conditions: in vivo, 168 h, time 7 day.
Data set [15] in a line: Toxicity in BALB/c mouse assessed as skin lesions at 62.5 mg as 4% ointment, TOP daily and measured upto 7 days. Conditions: in vivo, topical_or_ocular, 168 h, time < 7 day.
Data set [16] has as its system Mus musculus. Briefly: Anti-psoriatic activity in IMQ-induced BALB/c psoriasis mouse model assessed as reduction IMQ- induced immune response by measuring change in spleen weight at 10 mg/kg, po for 7 days. The data set is classed as functional, organism-based. As to conditions: time 7.0 day.
Data set [17] can be described thus: AUC (0 to infinity) in ICR mouse at 30 mg/kg, po measured upto 24 hrs by LC-MS/MS analysis. The data set is classed as ADME, organism-based. Also on record: dose 30 mg/kg, time < 24 hrs, route po. As to conditions: in vivo.
The species named for data set [18] is Mus musculus. Briefly: Anti-psoriatic activity in IMQ-induced BALB/c psoriasis mouse model assessed as reduction in scales score at 62.5 mg as 2% ointment, TOP daily and measured upto 7 days. Type of data set: functional, organism-based. As to conditions: time <= 7.0 day, DDE = dose-dependent effect.
The species entered for data set [19] is Mus musculus. Nature of the data set: Anti-psoriatic activity in IMQ-induced BALB/c psoriasis mouse model assessed as change in skin thickness at 62.5 mg as 2% ointment, TOP daily for 7 days by hematoxylin and eosin staining based confocal laser scanning microscopy. Type of data set: functional, organism-based. As to conditions: time 7.0 day.
Data set [20] is filed under the species Mus musculus. Briefly: Anti-psoriatic activity in IMQ-induced BALB/c psoriasis mouse model assessed as reduction in dermal cell proliferation at 62.5 mg as 2% ointment, TOP daily for 7 days by Ki67+ expression based immunohistochemistry analysis. The data set is classed as functional, organism-based. Conditions: time 7.0 day.
Data set [21] in a line: Half life in ICR mouse at 10 mg/kg, iv measured upto 24 hrs by LC-MS/MS analysis. The data set is classed as ADME, organism-based. As to conditions: in vivo.
The nature of data set [22]: Stability in rat liver microsomes assessed as half life measure upto 45 mins in presence of NADPH by LC-MS analysis. Type of data set: ADME, Microsome.

Sequence of 3',5'-cyclic-AMP phosphodiesterase 4D (Q08499 whole entry, the tested form may be a part): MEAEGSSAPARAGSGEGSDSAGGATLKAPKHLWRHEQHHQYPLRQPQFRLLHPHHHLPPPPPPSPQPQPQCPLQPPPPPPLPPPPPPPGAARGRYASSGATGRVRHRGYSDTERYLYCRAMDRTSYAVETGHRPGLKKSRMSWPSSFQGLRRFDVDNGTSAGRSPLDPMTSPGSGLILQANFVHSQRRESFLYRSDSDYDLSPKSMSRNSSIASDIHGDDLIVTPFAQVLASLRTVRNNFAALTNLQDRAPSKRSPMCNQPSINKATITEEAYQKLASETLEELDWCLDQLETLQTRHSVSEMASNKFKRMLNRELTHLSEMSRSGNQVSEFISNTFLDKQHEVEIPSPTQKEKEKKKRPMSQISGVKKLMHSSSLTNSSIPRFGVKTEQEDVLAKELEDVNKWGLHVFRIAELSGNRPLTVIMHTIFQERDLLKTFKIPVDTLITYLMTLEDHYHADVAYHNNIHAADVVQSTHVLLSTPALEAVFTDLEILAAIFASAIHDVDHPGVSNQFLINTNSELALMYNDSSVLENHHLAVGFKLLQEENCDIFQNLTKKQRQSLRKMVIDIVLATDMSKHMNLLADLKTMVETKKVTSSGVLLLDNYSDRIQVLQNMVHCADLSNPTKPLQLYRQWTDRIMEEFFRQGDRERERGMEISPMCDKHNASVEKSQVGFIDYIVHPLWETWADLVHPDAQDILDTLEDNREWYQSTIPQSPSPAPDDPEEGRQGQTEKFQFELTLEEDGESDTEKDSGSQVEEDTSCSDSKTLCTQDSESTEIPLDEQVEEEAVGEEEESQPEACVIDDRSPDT

`CCn1c(=O)c2c(c3ccc(C)nc31)O[C@@](C)(CCO)C[C@H]2C=C(C)C` displayed a bioavailability in [1] of 14.4%. Further, the half-life in data set [2] was 1.3 min; in [21], 55.2 min; in [22], 2.9 min. The IC50 in data set [3] is greater than 50 µM; in data set [4] it was greater than 10 µM; in [6], greater than 10 µM; in data set [8], 0.0031 µM; in data set [9] it was 2.13 µM. In addition, the Activity result was “Non-Toxic” with RAW264.7; “Dde” in the data set filed under Mus musculus [7]; “Non-Toxic” in data set [10]; “Non-Toxic” in data set [11]; “Dde” in the data set filed under Mus musculus [13]; “Non-Toxic” in data set [14]. Also, the Activity entry in data set [15] is “Non-Toxic”; in the data set filed under Mus musculus [18] it was “Dde”. Moreover, the result in the data set listed under Mus musculus [5], in the data set with Mus musculus [16], in the data set listed under Mus musculus [19] and in the data set filed under Mus musculus [20] was Active. Also, in [12], the AUC(0-t) at 24 h was 1130 ng·h/mL. In [17], this molecule yielded an AUC(0-inf) of 1200 ng·h/mL.

For orientation: bioavailability means the share of a dose that reaches the circulation, judged against a reference dose that is usually intravenous. A high value points to much systemic uptake. For orientation: half-life means how long it takes for the measured level to halve. One may read the IC50 as the concentration that gives 50% inhibition. In general, AUC(0-t) refers to the area under the concentration-time curve up to a stated or last time point. Higher therefore signals more exposure. One may read the AUC(0-inf) as the area under the concentration-time curve extrapolated to infinity.

Values taken from ChEMBL document CHEMBL5154753, “Discovery and Structural Optimization of Toddacoumalone Derivatives as Novel PDE4 Inhibitors for the Topical Treatment of Psoriasis” (J Med Chem, 2022).
